Read-outs that look alike come from different tables or passages of the source. *1 amine or outer side, *2 acyl side, *3 side chain or, on linkers, in order; H or OH if unused. Where a SMILES comes first, the peptide text is derived from it. Bridges are numbered along the chain shown (N, C = ends). [ ]: non-standard residue; d: D form. The star is where a group is joined. X2 = O=C(CCOCC(COCCC(=O)NCCOCCOCCOCCOC[C@H]1OC[C@H](Nc2cncc(C(F)(F)F)n2)[C@@H](O)[C@H]1O)NCC(=O)*)NCCOCCOCCOCCOC[C@H]1OC[C@H](Nc2cncc(C(F)(F)F)n2)[C@@H](O)[C@H]1O; X1 = O=C([C@@H]1C[C@H](N[*:3])CN1[*:1])[*:2]
Experiments:
[1] = molecular target: T1, ASGPR receptor on the cell surface (HepG2 cells) (Homo sapiens, UniProt P07306); experiment: Ternary complex formation assay (flow cytometry, HepG2); format: cell-based
T1 construct: host or cells: HepG2
T1 sequence (P07306 1-291): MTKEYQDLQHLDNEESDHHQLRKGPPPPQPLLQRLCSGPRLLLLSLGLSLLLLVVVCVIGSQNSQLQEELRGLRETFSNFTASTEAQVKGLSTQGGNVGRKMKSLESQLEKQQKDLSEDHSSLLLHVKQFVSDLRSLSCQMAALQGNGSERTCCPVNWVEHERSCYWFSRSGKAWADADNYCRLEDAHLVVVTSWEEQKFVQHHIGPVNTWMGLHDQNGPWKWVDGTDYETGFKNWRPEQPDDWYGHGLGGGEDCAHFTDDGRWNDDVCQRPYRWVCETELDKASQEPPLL
T1 sequence (P07307 1-311 partner): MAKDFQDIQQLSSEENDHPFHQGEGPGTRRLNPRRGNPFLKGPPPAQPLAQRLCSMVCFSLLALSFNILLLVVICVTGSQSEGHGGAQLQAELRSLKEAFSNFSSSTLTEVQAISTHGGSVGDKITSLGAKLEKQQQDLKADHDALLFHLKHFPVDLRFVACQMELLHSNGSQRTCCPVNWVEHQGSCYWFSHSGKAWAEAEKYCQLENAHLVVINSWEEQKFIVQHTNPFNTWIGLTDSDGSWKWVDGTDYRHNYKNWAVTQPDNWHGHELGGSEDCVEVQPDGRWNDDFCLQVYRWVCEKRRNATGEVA
Summary of the method: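 HepG2 cells (1×10^5/well) incubated 1 h at 4 °C with 100 nM AF488-labeled anti-human IgG plus serial IgG-based degrader, or 100 nM AF488 rabbit anti-DNP plus serial DNP-based degrader. After washing, cell-associated AF488 MFI read by flow cytometry; peak MFI marks optimal degrader concentration for ternary complex.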

ASGPR = molecular target: T2, ASGPR (Homo sapiens, UniProt P07306); experiment: Affinity to ASGPR by surface plasmon resonance (SPR)
T2 sequence (P07306 1-291): T1 sequence (P07306 1-291)
Experimental: Biotinylated ASGPR (20 μg/ml) was immobilized on SA sensor chips (GE Healthcare) at flow rate of 5 μl/min for 90 sec reaching an immobilization level ranging from 500-3000 resonance units (RU). The running buffer was 50 mM HEPES, pH7.5, 150 mM NaCl, 50 mM CaCl2), 0.01% P20, 3% DMSO. The concentration of compounds vary from 2 mM to 5 nM depending on Kd values. The compounds are diluted 2 or 3-fold with 8 concentration points. Solutions containing serially diluted compounds are injected at a flow rate of 40 μL/min for 150-300 sec followed by a 90-300 sec dissociation phase for each concentration. The surface was regenerated using 50 mM HEPES, pH 7.5, 150 mM NaCl, 5 mM EDTA, 0.01% P20, 3% DMSO.
Data was processed using the analysis software in Biacore 8K to perform background subtraction, double referencing, and solvent correction. Values of affinity expressed as the dissociation constants (Kd) were determined by fitting the steady state binding responses (RUs) as a function of the concentration ([Compound]) using the following equation: RU=RUmax/(KD+[Compound]), where RU max is the calculated maximal response. Where appropriate double-referenced data were fit to using a 1:1 binding model for kinetic analysis.

IgG = experiment: Affinity to IgG by surface plasmon resonance (SPR); format: binding; conditions: SPR; read-out: IgG KD
Experimental: Immobilization levels ranging from 1000-1300 resonance units (RU) are obtained. The running buffer is 10 mM HEPES, pH 7.4, 400 mM NaCl, 0.005% P20, […].

HepG2 cells = experiment: Cellular uptake assay of AF488-labeled antibody (HepG2); format: cell-based; conditions: HepG2 cells; read-out: Uptake EC50
Summary of the method: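 HepG2 cells given 100 nM AF488-labeled human IgG or DNP antibody plus serial dilutions of matching degrader (0.1% DMSO final), 6 h at 37° C. Methanol-fixed, DAPI-stained and imaged by high-content analysis. Value is the fraction of AF488-positive cells over total DAPI-counted cells.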

[2] = HepG2 cells, ternary complex formation, read-out: TCF EC50
[3] = TCF EC50, HepG2 cells, ternary complex formation

CC(C)C[C@@H]1NC(=O)[C@H](Cc2cnc[nH]2)NC(=O)[C@H](Cc2c[nH]c3ccccc23)NC(=O)[C@H](C)NC(=O)[C@@H]2CSSC[C@H](NC(=O)[C@H](Cc3c[nH]c4ccccc34)NC(=O)[C@H](C(C)C)NC(=O)[C@H](CC(C)C)NC(=O)[C@H](CCC(=O)O)NC(=O)CNC1=O)C(=O)N[C@@H]([C@@H](C)O)C(=O)N1CCC[C@@H]1C(=O)N1C[C@@H](NC(=O)CCN3CCN(CC(=O)NC[C@H]4OC[C@H](Nc5cncc(C(F)(F)F)n5)[C@@H](O)[C@H]4O)CC3)C[C@H]1C(=O)N[C@@H](CC(=O)O)C(=O)N2 [Compound 63]
EC50 [1, 2]: < 100 nM | Kd (ASGPR): 100 to 500 nM | Kd (IgG): < 100 nM | EC50 (HepG2 cells): < 100 nM

CC(C)C[C@@H]1NC(=O)[C@H](Cc2cnc[nH]2)NC(=O)[C@H](Cc2c[nH]c3ccccc23)NC(=O)[C@H](C)NC(=O)[C@@H]2CSSC[C@H](NC(=O)[C@H](Cc3c[nH]c4ccccc34)NC(=O)[C@H](C(C)C)NC(=O)[C@H](CC(C)C)NC(=O)[C@H](CCC(=O)O)NC(=O)CNC1=O)C(=O)N[C@@H]([C@@H](C)O)C(=O)N1CCC[C@@H]1C(=O)N1C[C@@H](NC(=O)c3ccc4c(c3)C(=O)c3cc(C(=O)NC[C@H]5OC[C@H](Nc6cncc(C(F)(F)F)n6)[C@@H](O)[C@H]5O)ccc3-4)C[C@H]1C(=O)N[C@@H](CC(=O)O)C(=O)N2 [Compound 64]
EC50 [1, 2]: < 100 nM | Kd (ASGPR): < 100 nM | Kd (IgG): < 100 nM | EC50 (HepG2 cells): 100 to 500 nM

CC(C)C[C@@H]1NC(=O)[C@H](Cc2cnc[nH]2)NC(=O)[C@H](Cc2c[nH]c3ccccc23)NC(=O)[C@H](C)NC(=O)[C@@H]2CSSC[C@H](NC(=O)[C@H](Cc3c[nH]c4ccccc34)NC(=O)[C@H](C(C)C)NC(=O)[C@H](CC(C)C)NC(=O)[C@H](CCC(=O)O)NC(=O)CNC1=O)C(=O)N[C@@H]([C@@H](C)O)C(=O)N1CCC[C@@H]1C(=O)N1C[C@@H](NC(=O)CNC(COCCC(=O)NC[C@H]3OC[C@H](Nc4cncc(C(F)(F)F)n4)[C@@H](O)[C@H]3O)COCCC(=O)NC[C@H]3OC[C@H](Nc4cncc(C(F)(F)F)n4)[C@@H](O)[C@H]3O)C[C@H]1C(=O)N[C@@H](CC(=O)O)C(=O)N2 [Compound 65]
EC50 [1, 2]: < 100 nM | Kd (ASGPR): < 100 nM | Kd (IgG): < 100 nM | EC50 (HepG2 cells): < 100 nM

CC(C)C[C@@H]1NC(=O)[C@H](Cc2cnc[nH]2)NC(=O)[C@H](Cc2c[nH]c3ccccc23)NC(=O)[C@H](C)NC(=O)[C@@H]2CSSC[C@H](NC(=O)[C@H](Cc3c[nH]c4ccccc34)NC(=O)[C@H](C(C)C)NC(=O)[C@H](CC(C)C)NC(=O)[C@H](CCC(=O)O)NC(=O)CNC1=O)C(=O)N[C@@H]([C@@H](C)O)C(=O)N1CCC[C@@H]1C(=O)N1C[C@@H](NC(=O)c3ccc(N4CCC(CN5CCN(C[C@H]6OC[C@H](Nc7cncc(C(F)(F)F)n7)[C@@H](O)[C@H]6O)CC5)CC4)nn3)C[C@H]1C(=O)N[C@@H](CC(=O)O)C(=O)N2 [Compound 66]
EC50 [1, 2]: < 100 nM | Kd (ASGPR): < 100 nM | Kd (IgG): < 100 nM | EC50 (HepG2 cells): < 100 nM

CC(C)C[C@@H]1NC(=O)[C@H](Cc2cnc[nH]2)NC(=O)[C@H](Cc2c[nH]c3ccccc23)NC(=O)[C@H](C)NC(=O)[C@@H]2CSSC[C@H](NC(=O)[C@H](Cc3c[nH]c4ccccc34)NC(=O)[C@H](C(C)C)NC(=O)[C@H](CC(C)C)NC(=O)[C@H](CCC(=O)O)NC(=O)CNC1=O)C(=O)N[C@@H]([C@@H](C)O)C(=O)N1CCC[C@@H]1C(=O)N1C[C@@H](NC(=O)c3ccc(C(=O)NC[C@H]4OC[C@H](Nc5cncc(C(F)(F)F)n5)[C@@H](O)[C@H]4O)cc3)C[C@H]1C(=O)N[C@@H](CC(=O)O)C(=O)N2 [Compound 67]
EC50 [1, 2]: > 1000 nM | Kd (ASGPR): < 100 nM | Kd (IgG): < 100 nM | EC50 (HepG2 cells): > 1000 nM

CC(C)C[C@@H]1NC(=O)[C@H](Cc2c[nH]cn2)NC(=O)[C@H](Cc2c[nH]c3ccccc23)NC(=O)[C@H](C)NC(=O)[C@@H]2CSSC[C@H](NC(=O)[C@H](Cc3c[nH]c4ccccc34)NC(=O)[C@H](C(C)C)NC(=O)[C@H](CC(C)C)NC(=O)[C@H](CCC(=O)O)NC(=O)CNC1=O)C(=O)N[C@@H]([C@@H](C)O)C(=O)N1CCC[C@@H]1C(=O)N1C[C@@H](NC(=O)c3ccc(N4CCC(CN5CCN(C[C@H]6OC[C@H](Nc7cncc(C(F)(F)F)n7)[C@@H](O)[C@H]6O)CC5)CC4)cc3)C[C@H]1C(=O)N[C@@H](CC(=O)O)C(=O)N2 [Compound 68]
EC50 [1]: < 100 nM | Kd (ASGPR): < 100 nM | Kd (IgG): < 100 nM | EC50 (HepG2 cells): < 100 nM

CC(C)C[C@@H]1NC(=O)[C@H](Cc2cnc[nH]2)NC(=O)[C@H](Cc2c[nH]c3ccccc23)NC(=O)[C@H](C)NC(=O)[C@@H]2CSSC[C@H](NC(=O)[C@H](Cc3c[nH]c4ccccc34)NC(=O)[C@H](C(C)C)NC(=O)[C@H](CC(C)C)NC(=O)[C@H](CCC(=O)O)NC(=O)CNC1=O)C(=O)N[C@@H]([C@@H](C)O)C(=O)N1CCC[C@@H]1C(=O)N1C[C@@H](NC(=O)C3CCC(C(=O)NC[C@H]4OC[C@H](Nc5cncc(C(F)(F)F)n5)[C@@H](O)[C@H]4O)CC3)C[C@H]1C(=O)N[C@@H](CC(=O)O)C(=O)N2 (some centres unmarked) [Compound 69]
EC50 [1, 2]: > 1000 nM | Kd (ASGPR): 100 to 500 nM | Kd (IgG): < 100 nM | EC50 (HepG2 cells): > 1000 nM

CC(C)C[C@@H]1NC(=O)[C@H](Cc2cnc[nH]2)NC(=O)[C@H](Cc2c[nH]c3ccccc23)NC(=O)[C@H](C)NC(=O)[C@@H]2CSSC[C@H](NC(=O)[C@H](Cc3c[nH]c4ccccc34)NC(=O)[C@H](C(C)C)NC(=O)[C@H](CC(C)C)NC(=O)[C@H](CCC(=O)O)NC(=O)CNC1=O)C(=O)N[C@@H]([C@@H](C)O)C(=O)N1CCC[C@@H]1C(=O)N1C[C@@H](NC(=O)c3ccc(-c4ccc(C(=O)NC[C@H]5OC[C@H](Nc6cncc(C(F)(F)F)n6)[C@@H](O)[C@H]5O)cc4)cc3)C[C@H]1C(=O)N[C@@H](CC(=O)O)C(=O)N2 [Compound 72]
EC50 [1, 2]: 500 to 1000 nM | Kd (ASGPR): < 100 nM | Kd (IgG): < 100 nM | EC50 (HepG2 cells): < 100 nM

CC(C)C[C@@H]1NC(=O)[C@H](Cc2c[nH]cn2)NC(=O)[C@H](Cc2c[nH]c3ccccc23)NC(=O)[C@H](C)NC(=O)[C@@H]2CSSC[C@H](NC(=O)[C@H](Cc3c[nH]c4ccccc34)NC(=O)[C@H](C(C)C)NC(=O)[C@H](CC(C)C)NC(=O)[C@H](CCC(=O)N(C)C)NC(=O)CNC1=O)C(=O)N[C@@H]([C@@H](C)O)C(=O)N1CCC[C@@H]1C(=O)N1C[C@@H](NC(=O)CNC(COCCC(=O)NCCOCCOCCOCCOC[C@H]3OC[C@H](Nc4cncc(C(F)(F)F)n4)[C@@H](O)[C@H]3O)COCCC(=O)NCCOCCOCCOCCOC[C@H]3OC[C@H](Nc4cncc(C(F)(F)F)n4)[C@@H](O)[C@H]3O)C[C@H]1C(=O)N[C@@H](CC(=O)O)C(=O)N2 [Compound 75]
EC50 [1]: < 100 nM | Kd (ASGPR): < 100 nM | Kd (IgG): < 100 nM | EC50 (HepG2 cells): < 100 nM

CC(C)C[C@@H]1NC(=O)[C@H](C)NC(=O)CNC(=O)[C@H](CC(C)C)NC(=O)[C@H](Cc2cnc[nH]2)NC(=O)[C@H](Cc2c[nH]c3ccccc23)NC(=O)[C@H](C)NC(=O)[C@@H]2CSSC[C@H](NC(=O)[C@H](Cc3c[nH]c4ccccc34)NC(=O)[C@H](C(C)C)NC1=O)C(=O)N[C@@H]([C@@H](C)O)C(=O)N1CCC[C@@H]1C(=O)N1C[C@@H](NC(=O)CNC(COCCC(=O)NCCOCCOCCOCCOC[C@H]3OC[C@H](Nc4cncc(C(F)(F)F)n4)[C@@H](O)[C@H]3O)COCCC(=O)NCCOCCOCCOCCOC[C@H]3OC[C@H](Nc4cncc(C(F)(F)F)n4)[C@@H](O)[C@H]3O)C[C@H]1C(=O)N[C@@H](C)C(=O)N2 [Compound 76] (cyclo(ACAWHLGALVWCT[dP][X1](X2)); disulfide 2-12)
EC50 [1, 3]: < 100 nM | Kd (ASGPR): < 100 nM | Kd (IgG): < 100 nM | EC50 (HepG2 cells): < 100 nM

CC(C)C[C@@H]1NC(=O)[C@H](Cc2cnc[nH]2)NC(=O)[C@H](Cc2c[nH]c3ccccc23)NC(=O)[C@H](C)NC(=O)[C@@H]2CSSC[C@H](NC(=O)[C@H](Cc3c[nH]c4ccccc34)NC(=O)[C@H](C(C)C)NC(=O)[C@H](CC(C)C)NC(=O)[C@H](CCC(=O)N(C)C)NC(=O)CNC1=O)C(=O)N[C@@H]([C@@H](C)O)C(=O)N1CCC[C@@H]1C(=O)N1C[C@@H](NC(=O)CNC(COCCC(=O)NCCOCCOCCOCCOC[C@H]3OC[C@H](Nc4cncc(C(F)(F)F)n4)[C@@H](O)[C@H]3O)COCCC(=O)NCCOCCOCCOCCOC[C@H]3OC[C@H](Nc4cncc(C(F)(F)F)n4)[C@@H](O)[C@H]3O)C[C@H]1C(=O)N[C@@H](C)C(=O)N2 [Compound 77]
EC50 [1, 3]: < 100 nM | Kd (ASGPR): < 100 nM | Kd (IgG): < 100 nM | EC50 (HepG2 cells): < 100 nM
